From PubChem BioAssay (NCI)
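Values below derive from 48-hour exposures of cells grown in 96-well plates, with endpoints linearly interpolated between the two concentrations bracketing the appropriate inhibition level. At the GI50, growth is halved. At the TGI there is no net growth.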 Where a SMILES comes first, the peptide text is derived from it.

Experiments:
Test in all cases: inhibition of tumour cell growth, NCI panel, 48 h
RXF 393 renal = test system: RXF 393 renal
SF-268 CNS = test system: SF-268 CNS
NCI-H522 lung = test system: NCI-H522 lung
NCI/ADR-RES ovarian = test system: NCI/ADR-RES ovarian
HL-60(TB) leukemia = test system: HL-60(TB) leukemia
DU-145 prostate = test system: DU-145 prostate
TK-10 renal = test system: TK-10 renal
OVCAR-8 ovarian = test system: OVCAR-8 ovarian
SW-620 colon = test system: SW-620 colon
SF-295 CNS = test system: SF-295 CNS

Structure (SMILES) | TGI (RXF 393 renal) [µM] | TGI (SF-268 CNS) [µM] | TGI (NCI-H522 lung) [µM] | TGI (NCI/ADR-RES ovarian) [µM] | TGI (HL-60(TB) leukemia) [µM] | TGI (DU-145 prostate) [µM] | TGI (TK-10 renal) [µM] | TGI (OVCAR-8 ovarian) [µM] | TGI (SW-620 colon) [µM] | TGI (SF-295 CNS) [µM] | GI50 (RXF 393 renal) [µM] | GI50 (NCI-H522 lung) [µM]
O=c1[nH]c2ccc(C(F)(F)F)cc2nc1-c1ccccc1 | > 100 | > 100 | > 100 | > 100 | > 100 | > 100 | > 100 | > 100 | > 100 | > 100 |  | 
CN(C)c1nc(N(C)C)nc(N(C)C)n1 | > 150 | > 150 | > 150 | > 150 | > 148 | > 150 | > 150 | > 150 | > 150 | > 150 |  | 
CC(C)(C)OC(=O)[N+](=N)C(=O)C1CCC(=O)N1C(=O)OCc1ccccc1 (centres undefined) | > 100 | > 100 | > 100 | > 100 | > 100 | > 100 | > 100 | > 100 | > 100 | > 100 |  | 
Cc1ccc2c(c1)SSSSS2 | 39 | 60.5 | 40.6 | 66.7 | 42.2 | 31.2 | 37.9 | 53.7 | 37.1 | 37 |  | 
O=c1c2ccccc2nc2n1NC(c1c(Cl)cccc1Cl)N2c1cccc(Cl)c1 (centres undefined) | 18.5 | > 100 | 28.8 | 68.5 | > 100 | > 100 | 21.8 | 12 | 14.3 | > 100 |  | 
C=C1C(=O)O[C@@H]2[C@H]3O[C@]3(C)CCC=C(C)CC[C@@H]12 | 27.4 | 62.6 | 17.1 | 45.3 | 23.4 |  |  | 43.9 | 34.5 | 83.2 |  | 
CC(=O)OCC1OC(On2ccccc2=S)C(OC(C)=O)C(OC(C)=O)C1OC(C)=O (centres undefined) | > 100 | > 100 | > 100 | > 100 | > 100 | > 100 | > 100 | > 100 | > 100 | > 100 |  | 
CSC(SC)=C1CC(=O)Nc2ccccc2C1=O | 52.8 | > 100 | > 100 | > 100 | > 100 | > 100 | > 100 | > 100 |  | > 100 |  | 
Cc1ccc(Nc2nc(=S)[nH]c3[nH]ncc23)cc1 | > 100 | > 100 | > 100 | > 100 | > 100 | > 100 | > 100 | > 100 | > 100 | > 100 |  | 
OC1(c2ccccc2)CC2CCC(C1)N2CCc1ccccc1 (centres undefined) | > 100 | > 100 |  | > 100 | > 100 | > 100 | > 100 | > 100 | > 100 | > 100 |  | 
NC(=O)NC(=O)c1cnccn1 | > 100 | > 100 | > 100 | > 100 |  | > 100 | > 100 |  | > 100 | > 100 |  | 
CN(C)CCCNc1c(O)c2c(c(O)c1Cl)C(=O)C=CC2=O |  |  |  | 5.38 |  | 3.27 | > 10 | 9.69 | 3.39 | 3.27 |  | 
COc1cc(NS(C)(=O)=O)ccc1NCc1cnc2ccc3[nH]c(C)ccc3c12 | 39.5 | > 100 | > 100 | > 100 | 34.9 | 89.1 | > 100 | > 100 | > 100 | > 100 |  | 
Cc1cc2nc3n[nH]c(N)c3nc2cc1C | > 100 | > 100 | > 100 | > 100 | > 100 | > 100 | > 100 | > 100 | > 100 | > 100 |  | 
COc1ccc(/C=C2\C=Cc3ccccc32)cc1OC | > 100 | > 100 | > 100 | > 100 | 69.5 | > 100 | > 100 | > 100 | > 100 | > 100 |  | 
CCN(CC)C(=S)SS(=O)(=O)c1ccccc1C(=O)O | > 100 | > 100 | > 36.3 | > 100 | > 42 | > 100 | > 100 | > 100 | > 100 | > 100 |  | 
CC1NC(=O)CNC(=O)CNC(=O)C(Cc2ccc(O)cc2)NC(=O)C(C(C)C)NC(=O)C(C)NC1=O (centres undefined) (cyclo(GGAAVY); configuration not given here) | > 100 | > 100 | > 100 | > 100 | > 100 |  |  | > 100 | > 100 | > 100 | > 100 | > 100
Cc1ccc(S(=O)ON2CCC(C(=O)O)(c3ccccc3)CC2)cc1 (centres undefined) | > 100 | > 100 | > 100 | > 100 | > 100 | > 100 | > 100 | > 100 | > 100 | > 100 |  | 
O=C(O)CC(C(=O)O)c1ccccc1[N+](=O)[O-] (centres undefined) | > 100 | > 100 | > 100 | > 100 | > 100 | > 100 | > 100 | > 100 | > 100 | > 100 |  | 
O=C(NN=C1CCN(Cc2ccccc2)CC1)C(O)(c1ccccc1)c1ccccc1 | > 100 | > 100 |  | > 100 | > 100 | > 100 | > 100 | > 100 | > 100 | > 100 |  | 
CCCCCCCCC[C@@H]1C[C@@H]2CCC3C(C(=O)OC)=C(C)NC(=N1)N32 (some centres undefined) | 8.55 | 23.5 | 9.82 | 52.2 | 26.9 | 21.9 | 29.1 | 23.7 | > 100 | 23.6 |  | 
COc1ccc2c(c1)C(N)CC2=O (centres undefined) | 36.3 | > 100 | > 100 | > 100 |  | > 100 | > 100 | > 100 | > 100 | > 100 |  | 
CC1=C2C(O)C(C(C)C(=O)NCC(C)C)CCC2(C)C=CC1=O (centres undefined) | > 100 | > 100 | > 100 | > 100 | > 100 |  |  | > 100 | > 100 | > 100 |  | 

Structure (SMILES) | TGI (RXF 393 renal) [µM] | TGI (SF-268 CNS) [µM] | TGI (NCI-H522 lung) [µM] | TGI (NCI/ADR-RES ovarian) [µM] | TGI (HL-60(TB) leukemia) [µM] | TGI (DU-145 prostate) [µM] | TGI (TK-10 renal) [µM] | TGI (OVCAR-8 ovarian) [µM] | TGI (SW-620 colon) [µM] | TGI (SF-295 CNS) [µM] | GI50 (RXF 393 renal) [µM] | GI50 (NCI-H522 lung) [µM]
C=C[C@@H]1OC(=O)O[C@H]1CO |  | > 100 |  | > 100 |  | > 100 | > 100 | > 100 | > 100 | > 100 |  | 
CC(C(=O)N1C(=O)N(C(=O)C(C)C(O)c2ccccc2)C(c2ccccc2)C1c1ccccc1)C(O)c1ccccc1 (centres undefined) | 28.1 | > 100 | 48.4 |  | 6.79 | > 100 | > 100 | > 100 | > 100 | 10.8 |  | 
O=c1c(O)c(-c2ccc(O)cc2O)oc2cc(O)cc(O)c12 |  | > 100 |  | > 100 | > 100 | > 100 | > 100 | > 100 | > 100 | > 100 |  | 
CCCCCCCCCOC(=O)c1cnc(Cl)cn1 |  | 46.3 | 36.1 | 48.2 |  | 33.8 | 43.9 | 69.6 | 32.5 | 34.6 |  | 
Clc1ccc(-c2nn3c(CCCCCCCCc4nnc5sc(-c6ccc(Cl)cc6)nn45)nnc3s2)cc1 | > 62.4 | > 100 | 28.8 | > 87.2 |  | > 61.4 | > 100 | > 94.8 | > 100 | 46.6 |  | 
CCCCCC(CN1CCOCC1)C(=O)/C=C/c1ccccc1 (centres undefined) | 3.47 | 5.02 |  |  | 5.42 |  |  |  | 3.33 | 10.2 |  | 
O=C1C=CC(=O)c2c1ccc1c3ccccc3n(-c3ccccn3)c21 |  | > 100 | 8.67 |  | 31.4 |  | 30.5 | > 100 |  | > 100 |  | 
CCC1(C)C=Cc2c(cc(OC)c3c(=O)c4ccccc4n(C)c23)O1 (centres undefined) | 5.52 | > 10 | > 10 | > 10 |  | > 10 | > 10 | > 10 | > 10 | > 10 |  | 
CC(C)=CCC[C@]1(C)CC[C@]2(C)C3CCC(=C(C)C)[C@@H](CCCO)[C@]3(C)CC[C@@]2(C)C1 (some centres undefined) |  | > 100 | 37.2 | > 100 | 84.3 | > 100 | 44.3 | > 100 | > 100 | > 100 |  | 
CCOC(=O)CN1CCNCCN(CC(=O)OCC)CCNCC1 | > 100 |  | > 100 | > 100 | > 100 | > 100 | > 100 | > 100 |  | > 100 |  | 
CCOC(=O)C1(C(=O)OCC)C[C@]23OCCC(=O)[C@H]2[C@H]2C(=O)OC(C)(C)O[C@]23C1 |  | > 100 | > 100 | > 100 | > 100 | > 100 | > 100 | > 100 | > 100 | > 100 |  | 
NCc1ccc(-c2ccc(-c3ccc(-c4ccc(CN)s4)s3)s2)s1 | > 100 |  | > 100 | > 100 | > 100 | > 100 | > 100 | > 100 | > 100 | > 100 |  | 
CCOC(=O)CC(=O)NC1CC2CCC1(C)C2(C)C (centres undefined) | > 100 | > 100 |  | > 100 | > 100 | > 100 | > 100 | > 100 | > 100 | > 100 |  | 
COc1c(CC=C(C)C)c(O)c(C(CC(C)C)c2c(O)c(C(C)=O)c(O)c3c2OC(C(C)(C)O)C3)c(O)c1C(C)=O (centres undefined) | 8.56 | > 12.5 | > 12.5 | 12.2 | 6.57 | > 12.5 |  | > 12.5 | > 12.5 |  |  | 
C[C@]12CC[C@@H]3c4ccc(O)cc4CC[C@H]3[C@@H]1C/C(=C\c1ccc([N+](=O)[O-])cc1)C2=O | 50.4 | > 100 | 65.4 | > 100 |  | > 100 | > 100 | > 100 | > 100 | > 100 |  | 
CC(=O)ON(OC(C)=O)c1ccc(C)cc1 | > 100 | > 100 | > 100 | > 100 |  | > 100 | > 100 | > 100 | > 100 | > 100 |  | 
COC(CN(C)C(=O)C(C)NC(=O)c1ccccc1)OC (centres undefined) | > 100 | > 100 | > 100 | > 100 |  | > 100 | > 100 | > 100 | > 100 | > 100 |  | 
c1ccc2c(c1)ccc1nc(-c3ccc4c(c3)OCO4)c3c(c12)CCCC3 |  | 88.1 |  | > 100 |  |  |  | > 100 | > 100 | > 100 |  | 
CC1C(c2ccc(F)cc2)c2cc3c(cc2OC1N1CCCC1)OCO3 (centres undefined) |  | > 100 | > 100 | > 100 |  | > 100 | > 100 | > 100 | > 100 | > 100 |  | 
Cc1ccc(-c2c(C#N)c(-c3ccc(Cl)cc3)c(C#N)c(=O)n2NS(=O)(=O)c2ccccc2)cc1 | > 100 | > 100 | > 100 | > 100 | > 100 |  | > 100 | > 100 | > 100 | > 100 |  | 
O=C(OCCN=C1c2ccccc2CCc2ccccc21)c1cc([N+](=O)[O-])cc([N+](=O)[O-])c1 | > 31.6 | > 31.6 |  | > 31.6 | > 100 | > 31.6 | > 31.6 | > 31.6 | > 31.6 | > 31.6 |  | 
Cc1cc(-c2ccc(C(=O)O)[nH]2)on1 | > 100 | > 100 | > 100 | 75.9 |  | > 100 | > 100 | > 100 | > 100 | > 100 |  | 
CCCC1NC(=O)C(CC(C)C)NC(=O)c2cccc(n2)C(=O)NC(CC(C)C)C(=O)NC(CCC)C(=O)NC(C(=O)OC)CCCCNC1=O (centres undefined) | > 100 | > 100 |  | > 100 |  | > 100 | > 100 | > 100 | > 100 | > 100 |  | 
